# Key:
# Assay type in all cases: in vivo
# [1] = system: barnyardgrass (Echinochloa crus-galli); assay: Test A preemergence, barnyardgrass; conditions: Preemergence; for Plant response rating, Barnyardgrass: 0 to 100 scale (0 no effect, 100 complete control); for Barnyardgrass plant response rating: visual injury on 0 to 100 scale (0 no effect, 100 complete control), approximately 10 days
# Excerpt: (§1) Seeds of plant species selected from barnyardgrass (Echinochloa crus-galli), kochia (Bassia scoparia), ragweed (common ragweed, Ambrosia artemisiifolia), Ryegrass, Italian (Italian ryegrass, Lolium multiflorum), Foxtail, Giant (giant foxtail, Setaria faberi), and pigweed (Amaranthus retroflexus) were planted into a blend of loam soil and sand and treated preemergence with a directed soil spray using test chemicals formulated in a non-phytotoxic solvent mixture which included a surfactant. At the same time, plants selected from these weed species and also wheat (Triticum aestivum), corn (Zea mays), blackgrass (Alopecurus myosuroides), and galium (catchweed bedstraw, Galium aparine) were planted in pots containing the same blend of loam soil and sand and treated with postemergence applications of test chemicals formulated in the same manner. Plants ranged in height from 2 to 10 cm and were in the one- to two-leaf stage for the postemergence treatment. […] A dash (-) response means no test result.
# kochia (Bassia scoparia) [2] = assay: Test A preemergence, kochia; conditions: Preemergence; for Plant response rating, Kochia: 0 to 100 scale (0 no effect, 100 complete control); for Kochia plant response rating: visual injury on 0 to 100 scale (0 no effect, 100 complete control), approximately 10 days
# Excerpt: as §1
# [3] = system: ragweed (common ragweed, Ambrosia artemisiifolia); assay: Test A preemergence, ragweed; conditions: Preemergence; for Plant response rating, Ragweed: 0 to 100 scale (0 no effect, 100 complete control); for Ragweed plant response rating: visual injury on 0 to 100 scale (0 no effect, 100 complete control), approximately 10 days
# Excerpt: as §1
# [4] = system: Ryegrass, Italian (Italian ryegrass, Lolium multiflorum); assay: Test A preemergence, Ryegrass, Italian; conditions: Preemergence; for Plant response rating, Ryegrass, Italian: 0 to 100 scale (0 no effect, 100 complete control); for Ryegrass, Italian plant response rating: visual injury on 0 to 100 scale (0 no effect, 100 complete control), approximately 10 days
# Excerpt: as §1
# [5] = system: Foxtail, Giant (giant foxtail, Setaria faberi); assay: Test A preemergence, Foxtail, Giant; conditions: Preemergence; for Plant response rating, Foxtail, Giant: 0 to 100 scale (0 no effect, 100 complete control); for Foxtail, Giant plant response rating: visual injury on 0 to 100 scale (0 no effect, 100 complete control), approximately 10 days
# Excerpt: as §1
# [6] = system: barnyardgrass (Echinochloa crus-galli); assay: Test A postemergence, barnyardgrass; conditions: Postemergence, 0 to 100 scale (0 no effect, 100 complete control)
# Excerpt: as §1
# kochia (Bassia scoparia) [7] = assay: Test A postemergence, kochia; conditions: Postemergence, 0 to 100 scale (0 no effect, 100 complete control)
# Excerpt: as §1
# [8] = system: ragweed (common ragweed, Ambrosia artemisiifolia); assay: Test A postemergence, ragweed; conditions: Postemergence, 0 to 100 scale (0 no effect, 100 complete control)
# Excerpt: as §1
# [9] = system: Ryegrass, Italian (Italian ryegrass, Lolium multiflorum); assay: Test A postemergence, Ryegrass, Italian; conditions: Postemergence, 0 to 100 scale (0 no effect, 100 complete control)
# Excerpt: as §1
# [10] = system: Foxtail, Giant (giant foxtail, Setaria faberi); assay: Test A postemergence, Foxtail, Giant; conditions: Postemergence, 0 to 100 scale (0 no effect, 100 complete control)
# Excerpt: as §1
# [11] = system: pigweed (Amaranthus retroflexus); assay: Test A postemergence, pigweed; conditions: Postemergence, 0 to 100 scale (0 no effect, 100 complete control)
# Excerpt: as §1
# [12] = system: wheat (Triticum aestivum); assay: Test A postemergence, wheat; conditions: Postemergence, 0 to 100 scale (0 no effect, 100 complete control)
# Excerpt: as §1
# corn (Zea mays) = assay: Test A postemergence, corn; conditions: Postemergence, 0 to 100 scale (0 no effect, 100 complete control)
# Excerpt: as §1
# [13] = system: blackgrass (Alopecurus myosuroides); assay: Test A postemergence, blackgrass; conditions: Postemergence, 0 to 100 scale (0 no effect, 100 complete control)
# Excerpt: as §1
# [14] = system: galium (catchweed bedstraw, Galium aparine); assay: Test A postemergence, galium; conditions: Postemergence, 0 to 100 scale (0 no effect, 100 complete control)
# Excerpt: as §1
# [15] = 125 g ai/ha, visual injury, approx. 10 days
# [16] = 500 g ai/ha, visual injury approx. 10 days
# [17] = 125 g ai/ha, visual injury approx. 10 days
# [18] = 500 g ai/ha, visual injury, approx. 10 days
# [19] = 500 g ai/ha, visual injury vs untreated controls after approx. 10 days
smiles,measurement,setting,value
Cc1cc(Cl)c(NS(=O)(=O)C(F)(F)F)cc1C(=O)N1CCOCC1C (stereo not drawn) [Compound 245],"Plant response rating, Barnyardgrass",[1]; [15],90
same,Barnyardgrass plant response rating,[1]; 500 g ai/ha,100
same,"Plant response rating, Kochia",kochia (Bassia scoparia) [2]; [15],80
same,Kochia plant response rating,kochia (Bassia scoparia) [2]; 500 g ai/ha,80
same,"Plant response rating, Ragweed",[3]; [15],90
same,Ragweed plant response rating,[3]; 500 g ai/ha,90
same,"Plant response rating, Ryegrass, Italian",[4]; [15],80
same,"Ryegrass, Italian plant response rating",[4]; 500 g ai/ha,100
same,"Plant response rating, Foxtail, Giant",[5]; [15],100
same,"Foxtail, Giant plant response rating",[5]; 500 g ai/ha,100
same,"Plant response rating, Barnyardgrass",[6]; 125 g ai/ha,90
same,"Plant response rating, Barnyardgrass",[6]; [16],90
same,"Plant response rating, Kochia",kochia (Bassia scoparia) [7]; 125 g ai/ha,40
same,"Plant response rating, Kochia",kochia (Bassia scoparia) [7]; [16],60
same,"Plant response rating, Ragweed",[8]; 125 g ai/ha,90
same,"Plant response rating, Ragweed",[8]; [16],90
same,"Plant response rating, Ryegrass, Italian",[9]; 125 g ai/ha,70
same,"Plant response rating, Ryegrass, Italian",[9]; [16],80
same,"Plant response rating, Foxtail, Giant",[10]; 125 g ai/ha,50
same,"Plant response rating, Foxtail, Giant",[10]; [16],90
same,"Plant response rating, Pigweed",[11]; 125 g ai/ha,80
same,"Plant response rating, Pigweed",[11]; [16],90
same,"Plant response rating, Wheat",[12]; 125 g ai/ha,60
same,"Plant response rating, Wheat",[12]; [16],60
same,"Plant response rating, Corn",corn (Zea mays); 125 g ai/ha,20
same,"Plant response rating, Corn",corn (Zea mays); [16],60
same,"Plant response rating, Blackgrass",[13]; 125 g ai/ha,40
same,"Plant response rating, Blackgrass",[13]; [16],60
same,"Plant response rating, Galium",[14]; 125 g ai/ha,90
same,"Plant response rating, Galium",[14]; [16],90
Cc1cc(C)c(N(S(=O)(=O)C(F)(F)F)S(=O)(=O)C(F)(F)F)cc1N1CC2(CCCCC2)OC1=O [Compound 269],"Plant response rating, Barnyardgrass",[1]; [15],100
same,Barnyardgrass plant response rating,[1]; 500 g ai/ha,100
same,"Plant response rating, Kochia",kochia (Bassia scoparia) [2]; [15],70
same,Kochia plant response rating,kochia (Bassia scoparia) [2]; 500 g ai/ha,100
same,"Plant response rating, Ragweed",[3]; [15],80
same,Ragweed plant response rating,[3]; 500 g ai/ha,90
same,"Plant response rating, Ryegrass, Italian",[4]; [15],80
same,"Ryegrass, Italian plant response rating",[4]; 500 g ai/ha,100
same,"Plant response rating, Foxtail, Giant",[5]; [15],100
same,"Foxtail, Giant plant response rating",[5]; 500 g ai/ha,100
same,"Plant response rating, Barnyardgrass",[6]; 125 g ai/ha,0
same,"Plant response rating, Barnyardgrass",[6]; [16],20
same,"Plant response rating, Kochia",kochia (Bassia scoparia) [7]; 125 g ai/ha,30
same,"Plant response rating, Kochia",kochia (Bassia scoparia) [7]; [16],50
same,"Plant response rating, Ragweed",[8]; 125 g ai/ha,40
same,"Plant response rating, Ragweed",[8]; [16],90
same,"Plant response rating, Ryegrass, Italian",[9]; 125 g ai/ha,0
same,"Plant response rating, Ryegrass, Italian",[9]; [16],20
same,"Plant response rating, Foxtail, Giant",[10]; 125 g ai/ha,0
same,"Plant response rating, Foxtail, Giant",[10]; [16],0
same,"Plant response rating, Pigweed",[11]; 125 g ai/ha,30
same,"Plant response rating, Pigweed",[11]; [16],70
same,"Plant response rating, Wheat",[12]; 125 g ai/ha,0
same,"Plant response rating, Wheat",[12]; [16],20
same,"Plant response rating, Corn",corn (Zea mays); 125 g ai/ha,0
same,"Plant response rating, Corn",corn (Zea mays); [16],10
same,"Plant response rating, Blackgrass",[13]; 125 g ai/ha,20
same,"Plant response rating, Blackgrass",[13]; [16],20
same,"Plant response rating, Galium",[14]; 125 g ai/ha,70
same,"Plant response rating, Galium",[14]; [16],90
CCc1cc(-c2cc(N(S(=O)(=O)C(F)(F)F)S(=O)(=O)C(F)(F)F)c(C)cc2C)c(=O)n(C)n1 [Compound 28],Barnyardgrass plant response rating,[1]; 125 g ai/ha,60
same,"Plant response rating, Barnyardgrass",[1]; 500 g ai/ha,100
same,Kochia plant response rating,kochia (Bassia scoparia) [2]; 125 g ai/ha,70
same,"Plant response rating, Kochia",kochia (Bassia scoparia) [2]; 500 g ai/ha,90
same,Ragweed plant response rating,[3]; 125 g ai/ha,0
same,"Plant response rating, Ragweed",[3]; 500 g ai/ha,30
same,"Ryegrass, Italian plant response rating",[4]; 125 g ai/ha,50
same,"Plant response rating, Ryegrass, Italian",[4]; 500 g ai/ha,90
same,"Foxtail, Giant plant response rating",[5]; 125 g ai/ha,30
same,"Plant response rating, Foxtail, Giant",[5]; 500 g ai/ha,90
same,"Plant response rating, Barnyardgrass",[6]; [17],0
same,"Plant response rating, Barnyardgrass",[6]; [18],80
same,"Plant response rating, Kochia",kochia (Bassia scoparia) [7]; [17],0
same,"Plant response rating, Kochia",kochia (Bassia scoparia) [7]; [18],30
same,"Plant response rating, Ragweed",[8]; [17],20
same,"Plant response rating, Ragweed",[8]; [18],80
same,"Plant response rating, Ryegrass, Italian",[9]; [17],0
same,"Plant response rating, Ryegrass, Italian",[9]; [18],0
same,"Plant response rating, Foxtail, Giant",[10]; [17],0
same,"Plant response rating, Foxtail, Giant",[10]; [18],10
same,"Plant response rating, Pigweed",[11]; [17],0
same,"Plant response rating, Pigweed",[11]; [18],40
same,"Plant response rating, Wheat",[12]; [17],30
same,"Plant response rating, Wheat",[12]; [18],50
same,"Plant response rating, Corn",corn (Zea mays); [17],0
same,"Plant response rating, Corn",corn (Zea mays); [18],0
same,"Plant response rating, Blackgrass",[13]; [17],0
same,"Plant response rating, Blackgrass",[13]; [18],30
same,"Plant response rating, Galium",[14]; [17],20
same,"Plant response rating, Galium",[14]; [18],70
Cc1c(NS(=O)(=O)C(F)(F)F)cc(C(=O)N2CC(C)OC(C)C2)c(C)c1F (stereo not drawn) [Compound 116],Barnyardgrass plant response rating,[1]; 125 g ai/ha,30
same,"Plant response rating, Barnyardgrass",[1]; 500 g ai/ha,90
same,Kochia plant response rating,kochia (Bassia scoparia) [2]; 125 g ai/ha,90
same,"Plant response rating, Kochia",kochia (Bassia scoparia) [2]; 500 g ai/ha,100
same,Ragweed plant response rating,[3]; 125 g ai/ha,10
same,"Plant response rating, Ragweed",[3]; 500 g ai/ha,100
same,"Ryegrass, Italian plant response rating",[4]; 125 g ai/ha,40
same,"Plant response rating, Ryegrass, Italian",[4]; 500 g ai/ha,90
same,"Foxtail, Giant plant response rating",[5]; 125 g ai/ha,60
same,"Plant response rating, Foxtail, Giant",[5]; 500 g ai/ha,90
same,"Plant response rating, Barnyardgrass",[6]; [17],50
same,Barnyardgrass plant response rating,[6]; [19],90
same,"Plant response rating, Kochia",kochia (Bassia scoparia) [7]; [17],30
same,Kochia plant response rating,kochia (Bassia scoparia) [7]; [19],70
same,"Plant response rating, Ragweed",[8]; [17],90
same,Ragweed plant response rating,[8]; [19],90
same,"Plant response rating, Ryegrass, Italian",[9]; [17],60
same,"Ryegrass, Italian plant response rating",[9]; [19],80
same,"Plant response rating, Foxtail, Giant",[10]; [17],0
same,"Foxtail, Giant plant response rating",[10]; [19],80
same,"Plant response rating, Pigweed",[11]; [17],60
same,Pigweed plant response rating,[11]; [19],80
same,"Plant response rating, Wheat",[12]; [17],60
same,Wheat plant response rating,[12]; [19],80
same,"Plant response rating, Corn",corn (Zea mays); [17],0
same,Corn plant response rating,corn (Zea mays); [19],80
same,"Plant response rating, Blackgrass",[13]; [17],0
same,Blackgrass plant response rating,[13]; [19],40
same,"Plant response rating, Galium",[14]; [17],90
same,Galium plant response rating,[14]; [19],90

# — patent US20230278972A1, “SUBSTITUTED HALOALKYL SULFONANILIDE HERBICIDES” (FMC Corporation, priority 2020, published 2023)
